The values that follow are results of earlier work, collected in US20070238698A1, “Method for manufacturing drinking water having chitosan” (Hsien-Chih Lin, priority 2006, published 2007).

Common to all, as to settings: added to drinking water; experiments to animals
In data set [1] the test system is inoculated tumors.
The test system of data set [2] is enteric microflora.
Data set [3] relates to huge corrosion cell having ability of immunity.

chitosan oligosaccharide: the “effect on inoculated tumors” value in data set [1] is listed as “reduced the inoculated tumors”. For the same substance, the “effect on enteric microflora of animals” value in data set [2] was “improve the enteric microflora of animals”. The “effect on huge corrosion cell having ability of immunity” value in data set [3] was “increase the huge corrosion cell having ability of immunity”.
